Data on 1 cell line can be found in the supplement of paper PMC10307832.

Experiment in all cases: relative viability (nuclei count vs DMSO), 5 days (fraction); higher = more cells survive
Compound in the assay “Vismodegib + Dasatinib”: CS(=O)(=O)c1ccc(C(=O)Nc2ccc(Cl)c(-c3ccccn3)c2)c(Cl)c1 [Vismodegib] + Cc1nc(Nc2ncc(C(=O)Nc3c(C)cccc3Cl)s2)cc(N2CCN(CCO)CC2)n1 [Dasatinib] (partner 0.075 µM)
Summed up:
(§1)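 A single step with final 0.05% Triton X-100, 1% formaldehyde and 1 ug/ml Hoechst fixed the cells and stained nuclei 5 days after treatment. Lung cancer cell lines in 1536-well plates had been treated by pin tool the day after seeding with one drug alone or a fixed anchor-drug dose plus five library-drug doses (not always all listed) in √10 steps, and nuclei were counted on 4× images. Relative viability is the ratio of nuclei in treated wells to nuclei in vehicle wells, taken as the median of duplicate plates.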

Compound in the assay “Ruxolitinib + Phenformin”: N#CC[C@H](C1CCCC1)n1cc(-c2ncnc3[nH]ccc23)cn1 [Ruxolitinib] + N=C(N)NC(=N)NCCc1ccccc1 [Phenformin] (partner 250 µM)
A digest of the protocol: as §1

Compound in the assay “Vismodegib + Bortezomib”: CS(=O)(=O)c1ccc(C(=O)Nc2ccc(Cl)c(-c3ccccn3)c2)c(Cl)c1 [Vismodegib] + CC(C)C[C@H](NC(=O)[C@H](Cc1ccccc1)NC(=O)c1cnccn1)B(O)O [Bortezomib] (partner 0.002 µM)
Summed up: as §1

Compound in the assay “VE-821 + Vorinostat”: CS(=O)(=O)c1ccc(-c2cnc(N)c(C(=O)Nc3ccccc3)n2)cc1 [VE-821] + O=C(CCCCCCC(=O)Nc1ccccc1)NO [Vorinostat] (partner 1 µM)
A digest of the protocol:
as §1

Consider UMC-11, for which the relative viability is 0.434 with Vismodegib + Dasatinib (first compound 0.08 µM); 0.471 with Vismodegib + Dasatinib (first compound 0.253 µM); 0.423 with Vismodegib + Dasatinib (first compound 0.8 µM); 0.444 with Vismodegib + Dasatinib (first compound 2.53 µM); 0.418 in the assay with Vismodegib + Dasatinib (first compound 8 µM); 0.344 with Ruxolitinib + Phenformin (first compound 0.08 µM). For the same cell line, the relative viability is 0.326 with Ruxolitinib + Phenformin (first compound 0.253 µM); 0.356 with Ruxolitinib + Phenformin (first compound 0.8 µM); 0.279 in the assay with Ruxolitinib + Phenformin (first compound 2.53 µM); 0.257 with Ruxolitinib + Phenformin (first compound 8 µM); 0.593 in the assay with Vismodegib + Bortezomib (first compound 0.08 µM); 0.665 with Vismodegib + Bortezomib (first compound 0.253 µM). Further, the relative viability with Vismodegib + Bortezomib (first compound 0.8 µM) turned out to be 0.85; in the assay with Vismodegib + Bortezomib (first compound 2.53 µM), 0.717; with Vismodegib + Bortezomib (first compound 8 µM) it was 0.745; with VE-821 + Vorinostat (first compound 0.08 µM) it was 0.335; in the assay with VE-821 + Vorinostat (first compound 0.253 µM), 0.373; in the assay with VE-821 + Vorinostat (first compound 0.8 µM), 0.386. Also, the relative viability with VE-821 + Vorinostat (first compound 2.53 µM) was 0.297; with VE-821 + Vorinostat (first compound 8 µM), 0.202.
